Measured values reported in PMC6979384, “Characterization of the plant homeodomain (PHD) reader family for their histone tail interactions” (Epigenetics & Chromatin, 2020).

Key:
Assay in all cases: Histone peptide microarray
Format in all cases: binding, human
Conditions in all cases: sheet "Array Heatmap", total n = 4
AIRE (PP) = system: AIRE (PP)
Outline: (§1)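 Using an optimized microarray protocol, purified GST-tagged PHD fingers were incubated at 0.5 μM on 293 histone peptides with single or multiple modifications, and array signal was recorded as the average of 4 replicates.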

BAZ2B = system: BAZ2B
Outline: as §1

BPTF (PB) = system: BPTF (PB)
Outline: as §1

CHD4 (PPCC) = system: CHD4 (PPCC)
Outline: as §1

CHD5 (PCC) = system: CHD5 (PCC)
Outline: as §1

CHD5 (PPCC) = system: CHD5 (PPCC)
Outline: as §1

DIDO1 = system: DIDO1
Outline: as §1

DPF2 (PPC2W2) = system: DPF2 (PPC2W2)
Outline: as §1

ING1 = system: ING1
Outline: as §1

ING2 = system: ING2
Outline: as §1

ING3 = system: ING3
Outline: as §1

ING4 = system: ING4
Outline: as §1

ING5 = system: ING5
Outline: as §1

KDM4C (TTP) = system: KDM4C (TTP)
Outline: as §1

KDM5A (1) = system: KDM5A (1)
Outline: as §1

KDM5A (3) = system: KDM5A (3)
Outline: as §1

KDM5B (1) = system: KDM5B (1)
Outline: as §1

KDM5B (3) = system: KDM5B (3)
Outline: as §1

KDM7A = system: KDM7A
Outline: as §1

MLL5 = system: MLL5
Outline: as §1

MORC3 (CW) = system: MORC3 (CW)
Outline: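 GST-tagged PHD finger readers were expressed, purified and applied at 0.5 μM to a microarray of 293 synthetic histone peptides carrying single or combinatorial PTMs, using an optimized protocol. Binding signals are averages with standard deviation from 4 replicates.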

PHF13 = system: PHF13
Outline: as §1

PHF21A = system: PHF21A
Outline: as §1

PHF23 = system: PHF23
Outline: as §1

PHF2 = system: PHF2
Outline: as §1

PHF8 = system: PHF8
Outline: as §1

PHRF1 (RP) = system: PHRF1 (RP)
Outline: as §1

RAG2 = system: RAG2
Outline: as §1

SP140L = system: SP140L
Outline: as §1

TAF3 = system: TAF3
Outline: as §1

TRIM66 (PB) = system: TRIM66 (PB)
Outline: as §1

[1] = GST-tagged reader, histone peptide array

Substance: H3K14ac (1-32): H3 1-32
- Array Heatmap value (peptide array signal) (AIRE (PP); AIRE (PP), each array performed twice): 0.6762
- Array Heatmap value (peptide array signal) (BAZ2B; BAZ2B, each array performed twice): 0.5612
- Array Heatmap value (peptide array signal) (BPTF (PB); BPTF (PB), each array performed twice): 0.3702
- Array Heatmap value (peptide array signal) (CHD4 (PPCC); CHD4 (PPCC), each array performed twice): 0.5914
- Array Heatmap value (peptide array signal) (CHD5 (PCC); CHD5 (PCC), each array performed twice): 0.9008
- Array Heatmap value (peptide array signal) (CHD5 (PPCC); CHD5 (PPCC), each array performed twice): 0.6129
- Array Heatmap value (peptide array signal) (DIDO1; DIDO1, each array performed twice): 0.6524
- Array Heatmap value (peptide array signal) (DPF2 (PPC2W2); DPF2 (PPC2W2), each array performed twice): 0.88
- Array Heatmap value (peptide array signal) (ING1; ING1, each array performed twice): 0.5563
- Array Heatmap value (peptide array signal) (ING2; ING2, each array performed twice): 0.6065
- Array Heatmap value (peptide array signal) (ING3; ING3, each array performed twice): 0.5035
- Array Heatmap value (peptide array signal) (ING4; ING4, each array performed twice): 0.5113
- Array Heatmap value (peptide array signal) (ING5; ING5, each array performed twice): 0.3965
- Array Heatmap value (peptide array signal) (KDM4C (TTP); KDM4C (TTP), each array performed twice): 0.5844
- Array Heatmap value (peptide array signal) (KDM5A (1); KDM5A (1), each array performed twice): 0.5739
- Array Heatmap value (peptide array signal) (KDM5A (3); KDM5A (3), each array performed twice): 0.5824
- Array Heatmap value (peptide array signal) (KDM5B (1); KDM5B (1), each array performed twice): 0.7332
- Array Heatmap value (peptide array signal) (KDM5B (3); KDM5B (3), each array performed twice): 0.5322
- Array Heatmap value (peptide array signal) (KDM7A; KDM7A, each array performed twice): 0.4771
- Array Heatmap value (peptide array signal) (MLL5; MLL5, each array performed twice): 0.5315
- Array Heatmap value (peptide array signal) (MORC3 (CW); MORC3 (CW), each array performed twice): 0.4902
- Array Heatmap value (peptide array signal) (PHF13; PHF13, each array performed twice): 0.6445
- Array Heatmap value (peptide array signal) (PHF21A; PHF21A, each array performed twice): 0.5508
- Array Heatmap value (peptide array signal) (PHF23; PHF23, each array performed twice): 0.5387
- Array Heatmap value (peptide array signal) (PHF2; PHF2, each array performed twice): 0.4742
- Array Heatmap value (peptide array signal) (PHF8; PHF8, each array performed twice): 0.4423
- Array Heatmap value (peptide array signal) (PHRF1 (RP); PHRF1 (RP), each array performed twice): 0.5867
- Array Heatmap value (peptide array signal) (RAG2; RAG2, each array performed twice): 0.2609
- Array Heatmap value (peptide array signal) (SP140L; SP140L, each array performed twice): 0.4015
- Array Heatmap value (peptide array signal) (TAF3; TAF3, each array performed twice): 0.3178
- Array Heatmap value (peptide array signal) (TRIM66 (PB); TRIM66 (PB), each array performed twice): 0.5901

Substance: H3R8me1: H3 1-20 [Peptide H3R8me1]
- Array Heatmap signal, AIRE (PP) (AIRE (PP); [1]): 0.5084
- Array Heatmap signal, BAZ2B (BAZ2B; [1]): 0.4447
- Array Heatmap signal, BPTF (PB) (BPTF (PB); [1]): 0.34
- Array Heatmap signal, CHD4 (PPCC) (CHD4 (PPCC); [1]): 0.56
- Array Heatmap signal, CHD5 (PCC) (CHD5 (PCC); [1]): 0.7411
- Array Heatmap signal, CHD5 (PPCC) (CHD5 (PPCC); [1]): 0.5449
- Array Heatmap signal, DIDO1 (DIDO1; [1]): 0.6306
- Array Heatmap signal, DPF2 (PPC2W2) (DPF2 (PPC2W2); [1]): 0.6736
- Array Heatmap signal, ING1 (ING1; [1]): 0.4918
- Array Heatmap signal, ING2 (ING2; [1]): 0.6007
- Array Heatmap signal, ING3 (ING3; [1]): 0.4554
- Array Heatmap signal, ING4 (ING4; [1]): 0.4481
- Array Heatmap signal, ING5 (ING5; [1]): 0.3558
- Array Heatmap signal, KDM4C (TTP) (KDM4C (TTP); [1]): 0.4945
- Array Heatmap signal, KDM5A (1) (KDM5A (1); [1]): 0.4661
- Array Heatmap signal, KDM5A (3) (KDM5A (3); [1]): 0.5111
- Array Heatmap signal, KDM5B (1) (KDM5B (1); [1]): 0.6779
- Array Heatmap signal, KDM5B (3) (KDM5B (3); [1]): 0.4843
- Array Heatmap signal, KDM7A (KDM7A; [1]): 0.3359
- Array Heatmap signal, MLL5 (MLL5; [1]): 0.5181
- Array Heatmap signal, MORC3 (CW) (MORC3 (CW); [1]): 0.4492
- Array Heatmap signal, PHF13 (PHF13; [1]): 0.597
- Array Heatmap signal, PHF21A (PHF21A; [1]): 0.4425
- Array Heatmap signal, PHF23 (PHF23; [1]): 0.5397
- Array Heatmap signal, PHF2 (PHF2; [1]): 0.4833
- Array Heatmap signal, PHF8 (PHF8; [1]): 0.3354
- Array Heatmap signal, PHRF1 (RP) (PHRF1 (RP); [1]): 0.6379
- Array Heatmap signal, RAG2 (RAG2; [1]): 0.2447
- Array Heatmap signal, SP140L (SP140L; [1]): 0.3587
- Array Heatmap signal, TAF3 (TAF3; [1]): 0.2594
- Array Heatmap signal, TRIM66 (PB) (TRIM66 (PB); [1]): 0.5513
